We go through two sequences from PMC9114170, “Investigation of the Role of Hydrophobic Amino Acids on the Structure-Activity Relationship in the Antimicrobial Venom Peptide Ponericin L1” (The Journal of membrane biology, 2021).

Ends that are not written are not given here.

Series [1] has as its system E. coli D31 outer membrane. In words: E. coli outer membrane permeabilization (nitrocefin / β-lactamase). In kind it is cell-based, Escherichia coli. As to conditions: E. coli D31, nitrocefin hydrolysis, absorbance 486 nm, up to 90 minutes; peptide serially diluted from 15 μM; average of three replicates. As to the method: A single colony of E.coli D31 was taken from an LB agar plate and inoculated into fresh LB broth with 100 μg/mL ampicillin (LB-Amp), then place in a shaking incubator at 37 C (225 rpm) for ~ 18 hours. After the incubation period 100 μL was taken from the culture and diluted with 25 mL of fresh LB-Amp. The dilution was further incubated in the same conditions until an OD600 of 0.2 to 0.4 was obtained. Once the specified OD600 was reached the culture was then centrifuged at 2500 rpm for 15 minutes in a tabletop clinical centrifuge. The supernatant was discarded and then an equal amount of PBS (100 mM NaH2PO4, 200 mM NaCl, pH7) was used to resuspend the pellet.
Experimental samples were prepared in a 96-well plate in the order as follows: 10 μL of the six peptide variants that were serially diluted starting a concentration of 15 μM with the exception of the last row (used as a negative control 10 μL of 0.01% acetic acid). 80 μL of the resuspended bacteria culture, and 10 μL of 50 μg/mL nitrocefin in PBS. The absorbance was recorded at 486 nm in 5-minute intervals for a total run time of 90 minutes immediately following the addition of nitrocefin. The antimicrobial agent polymyxin B was used as a positive control. The values presented are the average of three replicates.
As the mechanism of action of the L1 venom peptide is likely a membrane disruptive mechanism, the effect of the hydrophobic substitutions on membrane permeabilization was investigated using E.coli and ovine red blood cells (RBCs). The permeabilization of the E. coli outer membrane was assayed using an enzyme-substrate pair in which the enzyme (β-lactamase) is located in the periplasmic space while the substrate (the chromogenic nitrocefin) is added to the exterior of cells. […] Similarly, the permeabilization of the E. coli inner membrane was assessed using a cytoplasmic enzyme, β-galactosidase, and a chromogenic substrate, ONPG. […]

In series [2] the test system is Sheep red blood cells (RBCs). Description: Hemolysis. In kind it is cell-based. To be noted: ovine RBCs, 1 hour at 37 C, up to 15μM peptide, absorbance 415 nm, normalised to Triton X-100; average of three replicates. The procedure: Hemolysis on Sheep red blood cells (RBCs) was used to quantify the destabilization of membranes by leakage of hemoglobin. Sheep blood was obtained through Hemostat Laboratories and stored at 2 – 8 C. A 7 mL aliquot of whole sheep blood was mixed with 7 mL of sterile PBS at pH 7.4. The solution was sedimented via centrifugation for 7 minutes at 2500 rpm. Supernatant was removed and the pellet was resuspended to the original volume of 14 mL. This was repeated three times and the final pellet was resuspended to 14 with PBS. Next, 90 μl of the cell suspension was pipetted into all wells of a conical bottom 96-well plate. […] The absorbance of the plate was taken at 415 nm using a Spectramax M5 multimode plate reader. By using the absorbance of each well compared to the wells without additive and those with Triton-X 100 a percentage of hemolysis was calculated. […]
Hemolytic activity of venom peptides and, more broadly AMPS in general, has often been a first approximation toward assessing potential for further development. […] The peptides we co-incubated with freshly isolated ovine red blood cells and peptide-induced hemolysis was determined by comparing hemoglobin leakage from treated cells to that of untreated cells as well as cells treated with the detergent Triton X-100 as a positive control.

Series [3] relates to E. coli D31 inner membrane. Description: E. coli inner membrane permeabilization (ONPG / β-galactosidase). In kind it is cell-based, Escherichia coli. To be noted: E. coli D31, ONPG hydrolysis, absorbance 420 nm, up to 90 minutes; average of three replicates. As to the method:
A single colony of E.coli D31 was inoculated into LB broth and placed in a shaking incubator and set to 225 rpm at 37 C for ~ 18 hours. A 1:250 dilution was made using the overnight culture into fresh LB broth. To induce the expression the expression of β-galactosidase, a final concentration of 100mM of IPTG was introduced. This dilution plus the IPTG was placed back into the shaking incubator for about 2 hours until an OD600 of 0.2-0.4 was achieved.
A 96 well plate was prepared with the following solutions in order: 10 μL of each peptide variant 2-fold serially diluted down the plate with the exception of the final row (used as a negative control 10 μL of 0.01% acetic acid), 56 μL Z-buffer (60mM Na2HPO4, 40mM NaH2PO4, 10mM KCl, 1mM MgSO4, 50mM β-mercaptoethanol pH 7), 19 μL of the E. coli culture, and 15 μL of 4 mg/ml ONPG that was prepared in Z-buffer added immediately before the assay began. Absorbance measurements wer taken at 420 nm every 5 minutes for a total run time of 90 minutes. […]
As the mechanism of action of the L1 venom peptide is likely a membrane disruptive mechanism, the effect of the hydrophobic substitutions on membrane permeabilization was investigated using E.coli and ovine red blood cells (RBCs). […] Similarly, the permeabilization of the E. coli inner membrane was assessed using a cytoplasmic enzyme, β-galactosidase, and a chromogenic substrate, ONPG. […]

For the sequence FFKEFWTKMKGAGKAFFGKFKGFF [L1F], in series [1], the Outer membrane permeabilization entry was “increased permeability of the outer membrane”. Moreover, the Hemolysis entry in series [2] is listed as “do not cross the threshold for inducing hemolytic activity”. Moreover, in series [3], the Inner membrane permeabilization entry is recorded as “exhibited any inner membrane permeabilizing activity”.
The corresponding values for LLKELWTKMKGAGKALLGKLKGLL [L1L] are “increased permeability of the outer membrane”, “do not cross the threshold for inducing hemolytic activity” and “exhibited any inner membrane permeabilizing activity”.
